According to PubChem BioAssay (NCI):
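Briefly, cells in 96-well plates were exposed to five compound concentrations for 48 h, and endpoints were estimated by linear interpolation. The concentration for 50% growth inhibition is given as GI50. TGI marks complete inhibition of growth.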

How the values were obtained:
Test in all cases: growth of human tumour cells (NCI), 48 h
786-0 renal = tested on: 786-0 renal
A498 renal = tested on: A498 renal
A549 NSCLC = tested on: A549 NSCLC
ACHN renal = tested on: ACHN renal
BT-549 breast = tested on: BT-549 breast
CAKI-1 renal = tested on: CAKI-1 renal
COLO 205 colon = tested on: COLO 205 colon
DU-145 prostate = tested on: DU-145 prostate
EKVX NSCLC = tested on: EKVX NSCLC
HCC-2998 colon = tested on: HCC-2998 colon
HCT-116 colon = tested on: HCT-116 colon
HCT-15 colon = tested on: HCT-15 colon
HL-60(TB) leukemia = tested on: HL-60(TB) leukemia
HOP-62 NSCLC = tested on: HOP-62 NSCLC
HOP-92 NSCLC = tested on: HOP-92 NSCLC
HS 578T breast = tested on: HS 578T breast
HT29 colon = tested on: HT29 colon
IGROV1 ovarian = tested on: IGROV1 ovarian
K-562 leukemia = tested on: K-562 leukemia
KM12 colon = tested on: KM12 colon
LOX IMVI melanoma = tested on: LOX IMVI melanoma
M14 melanoma = tested on: M14 melanoma
MALME-3M melanoma = tested on: MALME-3M melanoma
MCF7 breast = tested on: MCF7 breast
MDA-MB-231 breast = tested on: MDA-MB-231 breast
MDA-MB-435 = tested on: MDA-MB-435
MOLT-4 leukemia = tested on: MOLT-4 leukemia
NCI-H226 lung = tested on: NCI-H226 lung
NCI-H23 lung = tested on: NCI-H23 lung
NCI-H460 lung = tested on: NCI-H460 lung
NCI-H522 lung = tested on: NCI-H522 lung
NCI/ADR-RES ovarian = tested on: NCI/ADR-RES ovarian
OVCAR-3 ovarian = tested on: OVCAR-3 ovarian
OVCAR-4 ovarian = tested on: OVCAR-4 ovarian
OVCAR-5 ovarian = tested on: OVCAR-5 ovarian
OVCAR-8 ovarian = tested on: OVCAR-8 ovarian
PC-3 prostate = tested on: PC-3 prostate
RPMI-8226 leukemia = tested on: RPMI-8226 leukemia
RXF 393 renal = tested on: RXF 393 renal
SF-268 CNS = tested on: SF-268 CNS
SF-295 CNS = tested on: SF-295 CNS
SF-539 CNS = tested on: SF-539 CNS
SK-MEL-2 melanoma = tested on: SK-MEL-2 melanoma
SK-MEL-28 melanoma = tested on: SK-MEL-28 melanoma
SK-MEL-5 melanoma = tested on: SK-MEL-5 melanoma
SK-OV-3 ovarian = tested on: SK-OV-3 ovarian
SN12C renal = tested on: SN12C renal
SNB-19 CNS = tested on: SNB-19 CNS
SNB-75 CNS = tested on: SNB-75 CNS
SR leukemia = tested on: SR leukemia
SW-620 colon = tested on: SW-620 colon
T-47D breast = tested on: T-47D breast
TK-10 renal = tested on: TK-10 renal
U251 CNS = tested on: U251 CNS
UACC-62 melanoma = tested on: UACC-62 melanoma
UO-31 renal = tested on: UO-31 renal
CCRF-CEM leukemia = tested on: CCRF-CEM leukemia
UACC-257 melanoma = tested on: UACC-257 melanoma

## COc1ccc(N(CC(=O)NCCC[Te]c2ccccc2)C(=O)c2ccccc2)cc1
786-0 renal
  GI50: 5.09 µM
  TGI: 19.6 µM
A498 renal
  GI50: 2.17 µM
  TGI: 5.35 µM
A549 NSCLC
  GI50: 0.382 µM
  TGI: 2.14 µM
ACHN renal
  GI50: 3.17 µM
  TGI: 9.6 µM
BT-549 breast
  GI50: 2.39 µM
  TGI: 8.68 µM
CAKI-1 renal
  GI50: 2.98 µM
  TGI: 14.9 µM
COLO 205 colon
  GI50: 2.58 µM
  TGI: 6.03 µM
DU-145 prostate
  GI50: 3.9 µM
  TGI: 13.9 µM
EKVX NSCLC
  GI50: 0.407 µM
  TGI: 5.27 µM
HCC-2998 colon
  GI50: 3.03 µM
  TGI: 8.21 µM
HCT-116 colon
  GI50: 2.55 µM
  TGI: 10.2 µM
HCT-15 colon
  GI50: 2.95 µM
  TGI: 15 µM
HL-60(TB) leukemia
  GI50: 2.12 µM
  TGI: 5.73 µM
HOP-62 NSCLC
  GI50: 2.41 µM
  TGI: 5.32 µM
HOP-92 NSCLC
  GI50: 4.1 µM
HS 578T breast
  GI50: 2.97 µM
  TGI: 8.41 µM
HT29 colon
  GI50: 3.84 µM
  TGI: > 100 µM
IGROV1 ovarian
  GI50: 2.88 µM
  TGI: 8.27 µM
K-562 leukemia
  GI50: 5.17 µM
  TGI: > 100 µM
KM12 colon
  GI50: 3.13 µM
  TGI: 11.9 µM
LOX IMVI melanoma
  GI50: 3.69 µM
  TGI: 14.3 µM
M14 melanoma
  GI50: 4.21 µM
  TGI: 15.4 µM
MALME-3M melanoma
  GI50: 16.7 µM
  TGI: 34.7 µM
MCF7 breast
  GI50: 3.17 µM
  TGI: 10.8 µM
MDA-MB-231 breast
  GI50: 2.08 µM
  TGI: 4.76 µM
MDA-MB-435
  GI50: 8.06 µM
  TGI: 30.2 µM
MOLT-4 leukemia
  GI50: 3.51 µM
  TGI: 17.5 µM
NCI-H226 lung
  GI50: 2.62 µM
  TGI: 7.21 µM
NCI-H23 lung
  GI50: 3.17 µM
  TGI: 9.36 µM
NCI-H460 lung
  GI50: 0.543 µM
  TGI: 2.37 µM
NCI-H522 lung
  GI50: 3.1 µM
  TGI: 8.84 µM
NCI/ADR-RES ovarian
  GI50: 3.23 µM
  TGI: 10.8 µM
OVCAR-3 ovarian
  GI50: 5.75 µM
  TGI: 19.8 µM
OVCAR-4 ovarian
  GI50: 11.9 µM
  TGI: 25.2 µM
OVCAR-5 ovarian
  GI50: 3.8 µM
  TGI: 11.4 µM
OVCAR-8 ovarian
  GI50: 3.03 µM
  TGI: 8.12 µM
PC-3 prostate
  GI50: 2.68 µM
  TGI: 12.6 µM
RPMI-8226 leukemia
  GI50: 3.18 µM
  TGI: 19.2 µM
RXF 393 renal
  GI50: 12 µM
  TGI: 30.3 µM
SF-268 CNS
  GI50: 3.19 µM
  TGI: 10.8 µM
SF-295 CNS
  GI50: 1.68 µM
  TGI: 8.17 µM
SF-539 CNS
  GI50: 2.3 µM
  TGI: 6 µM
SK-MEL-2 melanoma
  GI50: 4.19 µM
  TGI: 15.3 µM
SK-MEL-28 melanoma
  GI50: 4.33 µM
  TGI: 15.6 µM
SK-MEL-5 melanoma
  GI50: 2.4 µM
  TGI: 6.08 µM
SK-OV-3 ovarian
  GI50: 2.55 µM
  TGI: 6 µM
SN12C renal
  GI50: 2.7 µM
  TGI: 8.51 µM
SNB-19 CNS
  GI50: 4.06 µM
  TGI: 59 µM
SNB-75 CNS
  GI50: 2.58 µM
  TGI: 9.64 µM
SR leukemia
  GI50: 2.82 µM
SW-620 colon
  GI50: 3.87 µM
  TGI: 14.4 µM
T-47D breast
  GI50: 3.4 µM
  TGI: 21.6 µM
TK-10 renal
  GI50: 3.85 µM
  TGI: 11.4 µM
U251 CNS
  GI50: 2.82 µM
  TGI: 9.4 µM
UACC-62 melanoma
  GI50: 2.53 µM
  TGI: 7.5 µM
UO-31 renal
  GI50: 2.77 µM
  TGI: 10.9 µM

## COc1cc(C(=O)c2ccc3c(c2)OCO3)cc(OC)c1OC
786-0 renal
  GI50: 10.5 µM
  TGI: > 100 µM
A498 renal
  GI50: 1.75 µM
  TGI: 7.93 µM
A549 NSCLC
  GI50: 6.03 µM
  TGI: > 100 µM
ACHN renal
  GI50: 8.37 µM
  TGI: > 100 µM
BT-549 breast
  GI50: 7.09 µM
  TGI: > 100 µM
CAKI-1 renal
  GI50: 1.88 µM
  TGI: > 27.4 µM
CCRF-CEM leukemia
  GI50: 2.46 µM
  TGI: > 75.3 µM
COLO 205 colon
  GI50: 1.37 µM
  TGI: 6.2 µM
DU-145 prostate
  GI50: 3.51 µM
  TGI: > 65.7 µM
EKVX NSCLC
  GI50: 3.77 µM
  TGI: > 100 µM
HCC-2998 colon
  GI50: 9.73 µM
  TGI: > 100 µM
HCT-116 colon
  GI50: 2.08 µM
  TGI: > 100 µM
HCT-15 colon
  GI50: 0.928 µM
  TGI: > 100 µM
HL-60(TB) leukemia
  GI50: 0.609 µM
  TGI: 9.02 µM
HOP-62 NSCLC
  GI50: 3.34 µM
  TGI: > 100 µM
HOP-92 NSCLC
  GI50: 2.48 µM
  TGI: > 100 µM
HS 578T breast
  GI50: 2.54 µM
  TGI: > 26.9 µM
HT29 colon
  GI50: 0.502 µM
  TGI: 15.5 µM
IGROV1 ovarian
  GI50: 1.45 µM
  TGI: > 45.5 µM
K-562 leukemia
  GI50: 0.482 µM
  TGI: > 100 µM
KM12 colon
  GI50: 0.656 µM
  TGI: 80.8 µM
LOX IMVI melanoma
  GI50: 6.69 µM
  TGI: > 100 µM
M14 melanoma
  GI50: 1.2 µM
  TGI: > 100 µM
MCF7 breast
  GI50: 0.824 µM
  TGI: > 100 µM
MDA-MB-231 breast
  GI50: 8.65 µM
  TGI: > 100 µM
MDA-MB-435
  GI50: 0.2 µM
  TGI: 0.502 µM
MOLT-4 leukemia
  GI50: 2.72 µM
  TGI: > 75.1 µM
NCI-H226 lung
  GI50: 8.76 µM
  TGI: > 100 µM
NCI-H23 lung
  GI50: 4.93 µM
  TGI: > 100 µM
NCI-H460 lung
  GI50: 2.55 µM
  TGI: > 100 µM
NCI-H522 lung
  GI50: 1.4 µM
  TGI: 8.84 µM
NCI/ADR-RES ovarian
  GI50: 0.987 µM
  TGI: > 100 µM
OVCAR-3 ovarian
  GI50: 1.4 µM
  TGI: 3.93 µM
OVCAR-4 ovarian
  GI50: 5.14 µM
  TGI: > 100 µM
OVCAR-5 ovarian
  GI50: 8.96 µM
  TGI: > 100 µM
OVCAR-8 ovarian
  GI50: 5.55 µM
  TGI: > 100 µM
PC-3 prostate
  GI50: 4.12 µM
  TGI: > 100 µM
RPMI-8226 leukemia
  GI50: 2.64 µM
  TGI: > 42 µM
RXF 393 renal
  GI50: 2.88 µM
  TGI: 17.1 µM
SF-268 CNS
  GI50: 5.56 µM
  TGI: > 100 µM
SF-295 CNS
  GI50: 1.55 µM
SF-539 CNS
  GI50: 1.95 µM
  TGI: 7.52 µM
SK-MEL-2 melanoma
  GI50: 2.53 µM
  TGI: > 100 µM
SK-MEL-28 melanoma
  GI50: 3.69 µM
  TGI: > 100 µM
SK-MEL-5 melanoma
  GI50: 1.88 µM
  TGI: > 21.5 µM
SK-OV-3 ovarian
  GI50: 2.84 µM
  TGI: 33.1 µM
SN12C renal
  GI50: 6.86 µM
  TGI: > 100 µM
SNB-19 CNS
  GI50: 5.07 µM
  TGI: > 100 µM
SNB-75 CNS
  GI50: 1.39 µM
  TGI: 5.03 µM
SR leukemia
  GI50: 0.348 µM
  TGI: > 87.7 µM
SW-620 colon
  GI50: 0.621 µM
  TGI: > 100 µM
T-47D breast
  GI50: 5.3 µM
  TGI: > 100 µM
TK-10 renal
  GI50: 4.44 µM
  TGI: > 100 µM
U251 CNS
  GI50: 2.81 µM
  TGI: > 100 µM
UACC-257 melanoma
  GI50: > 100 µM
  TGI: > 100 µM
UACC-62 melanoma
  GI50: 2.62 µM
  TGI: > 100 µM
UO-31 renal
  GI50: 2.93 µM
  TGI: 38.2 µM
